In patent publication US20220378761A1, “PAPD5 Inhibition As A Treatment For Dyskeratosis Congenita, Aplastic Anemia And Myelodysplastic Syndrome Caused By Reduced Telomerase RNA Levels” (The Regents of The University of Colorado, A Body Corporate, priority 2019, published 2022):

Assays:
γH2AX = γH2AX immunoblot (DNA damage signaling) in DKC1_A353V hESCs; format: cell-based, Homo sapiens; details: DKC1_A353V cells, different concentrations vs DMSO
Description: (§1) The present inventors investigated if treatment with RG7834 was sufficient to reduce DNA damage signaling arising from eroded telomeres, a hallmark of DC.
Immunoblots. Extraction of protein was performed using NP-40 buffer (25 mM HEPES-KOH, 150 mM KCl, 1.5 mM MgCl2, 10% glycerol, 0.5% NP40, and 5 mM 2ME [pH 7.5]) supplemented with protease and phosphatase inhibitors for 20 minutes on ice and supernatant was then collected. Protein quantification was analyzed by Bradford Assay. Proteins were then resolved in 12% polyacrylamide gels in 1× Tris/glycine/SDS buffer and following resolution was transferred onto nitrocellulose membrane at 400 milliamps for 1:45 hours in 1× Tris/glycine buffer with 20% methanol. Membranes were blocked in 5% milk in TBS buffer and primary γH2AX and PARN (1:1000, and 1:4000, respectively; Abcam, Cambridge Mass.), DKC1 (1:4000, Bethyl Laboratories), Actin (1:2000, Cell Signaling Technologies, Danvers, Mass.) and GAPDH (1:5000; Cell Signaling Technologies) antibodies incubation was performed overnight at 4° C. in 5% BSA in TBS-buffer supplemented with 1% Tween-20 (TBS-T). Secondary antibodies (Li-COR, Lincoln, Nebr.) incubation was in 1% milk in TBS-T for 1 hour. Image capture and signal analysis was performed using odyssey IR scanner and Image Studio software (Li-COR).

[1] = cited from earlier work
DKC1_A353V hESCs [2] = test: Whole-genome RNA-sequencing of DKC1_A353V hESCs; format: cell-based, Homo sapiens; details: 1 μM RG7834 vs DMSO
Description: as §1
RNA-seq of transcriptome from DMSO or RG7834 treated DKC1_A353V cells: RNA was extracted from DMSO or RG7834 (1 μM) treated DKC1 mutant cells using Trizol as per manufacturer's instructions and contaminating DNA was removed using TURBO DNase. 1 μg of total RNA in triplicate from each condition was depleted of ribosomal RNA using Ribocop rRNA depletion kit V3 (Lexogen). 50 ng of recovered total RNA was used for strand-specific library preparation using the Rapid Directional RNA-seq kit 2.0 (Perkin Elmer) as per manufacturer's protocol. Prepared libraries were sequenced on an Illumina HiSeq using 2×150 paired end sequencing kit. Demultiplexed reads were checked for quality using the FastQC tool and subjected to adapter trimming using Trimmomatic. Trimmed reads were aligned to the hg38 p13 version 99 human genome release and annotation obtained from ENSEMBL using the STAR alignment software. Aligned files were sorted according to chromosomal coordinate and compressed to BAM files. HTSeq was used to count the number of reads for each gene from BAM files. Read counts were used for downstream analysis for changes in gene expression using DESeq2. […]

HeLa cells = test: Toxicity in RG7834-treated HeLa cells; format: cell-based, Homo sapiens; details: duration of the experiments
TERC = TERC quantification by qRT-PCR in DKC1_A353V hESCs; format: cell-based, Homo sapiens; details: for TERC levels: DKC1_A353V hESCs
Excerpt: (§2) Treatment of DKC1_A353V hESCs with RG7834 caused a >15-fold reduction in the 3′-end oligoadenylation of TERC, indicating efficient PAPD5 inhibition in these cells (FIG. 2A).
RNA extraction and Quantitative real-time PCR: Total RNA was isolated using Trizol (Invitrogen) in accordance with the manufacturer's instructions followed by Turbo DNA-free DNase (Invitrogen) treatment. RNA was converted into cDNA using Superscript III First Strand synthesis kit (Invitrogen) following manufacturer's instructions. Real-time PCR was performed using Evagreen master mix (Lambda Biotech, St. Louis, Mo.) on a StepOne Plus instrument DNase treatment (Thermo Fisher Scientific). For TERC analysis, Brilliant II 1-step qRT-PCR master mix (Agilent, Santa Clara, Calif.) was used following manufacturer's instructions. Reactions were performed in triplicates with 100 ng of RNA per reaction and used gene-specific (for/rev) primers were as follows: […]

PAPD5 = molecular target: T1, PAPD5 (Homo sapiens, UniProt Q8NDF8); test: 3′ end sequencing of TERC (oligoadenylation) in DKC1_A353V hESCs; format: cell-based
T1 construct: endogenous in cells; host or cells: DKC1_A353V mutant hESCs (H1; WA01), made by CRISPR/Cas9 editing
Description: as §2
3′ end sequencing of TERC: Briefly, ˜100 ng of DNase-treated, rRNA-depleted, Antarctic phosphatase treated RNA was ligated with 40 pmol of barcoded appendix (2 reactions per sample) using T4 RNA Ligase I and 10 mM ATP. Enzymatic reaction was cleaned up using RNA clean and concentrator kit (Zymo). 4 μl of […] from each reaction (8 μl total RNA) was used for cDNA synthesis using a primer complementary to the appendix. The cDNA product was then used as template for 5′ RACE using TERC-specific barcoded primers and a universal primer. The RACE product was size-selected on a 1% agarose gel and fragments ˜100-300 bp were gel purified and amplified using Illumina sequencing primers. Libraries were multiplexed and sequenced on an Illumina NextSeq sequencer (mid-output setting and 1×150 cycle kit). Sequenced reads were filtered using both the TERC primer and the appendix barcode and reads with 100% sequence identify were used for downstream analysis. TERC reads with […] at the mature end (for e.g., UGCAA, UGCAAA, etc.) were quantified as oligoadenylated for analysis.

DKC1_A353V hESCs [3] = test: Toxicity in DKC1_A353V hESCs (NANOG qRT-PCR, EdU incorporation); format: cell-based, Homo sapiens; details: concentrations indicated, entire duration (60 days)
Description: FIG. 5. No detectable RG7834 toxicity in hESCs. (A) Representative immunoblot analysis of γH2AX in DKC1_A353V hESCs treated with different concentrations of RG7834 (indicated in the figure). Positive control: Etoposide 50 nM. Actin is shown as a loading control. (B) Quantification of NANOG by qRT-PCR in DKC1_A353V hESCs treated with DMSO or different concentrations of RG7834 (as indicated) for 60 days. (C) Flow cytometry analysis of EdU incorporation with DNA content (DAPI) in DKC1_A353V hESCs, treated with DMSO or 5 μM of RG7834 for 60 days. Quantification of active proliferating cells (EdU positive) is indicated. (D) MA plot for the analysis of RNA-sequencing experiments between DMSO or RG7834 treated DKC1_A353V hESCs. No significant differences in gene expression were found.
as §1

T1 sequence (Q8NDF8 whole entry): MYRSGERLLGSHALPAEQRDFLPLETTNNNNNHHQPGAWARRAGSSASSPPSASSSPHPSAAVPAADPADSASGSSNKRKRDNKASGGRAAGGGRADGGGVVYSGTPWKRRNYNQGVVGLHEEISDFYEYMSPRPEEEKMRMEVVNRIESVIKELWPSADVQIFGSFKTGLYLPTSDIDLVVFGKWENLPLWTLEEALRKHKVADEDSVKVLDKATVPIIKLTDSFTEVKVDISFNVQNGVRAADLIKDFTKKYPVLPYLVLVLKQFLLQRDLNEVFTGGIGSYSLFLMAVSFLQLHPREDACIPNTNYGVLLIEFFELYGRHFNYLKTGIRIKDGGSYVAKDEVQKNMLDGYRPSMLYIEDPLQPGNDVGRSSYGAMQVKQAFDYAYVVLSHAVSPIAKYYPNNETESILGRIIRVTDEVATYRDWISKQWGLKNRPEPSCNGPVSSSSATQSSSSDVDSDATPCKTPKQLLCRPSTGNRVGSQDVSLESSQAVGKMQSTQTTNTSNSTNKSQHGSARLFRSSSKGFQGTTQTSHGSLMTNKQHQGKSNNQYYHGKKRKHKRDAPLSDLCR

COCCCOc1cc2c(cc1OC)-c1cc(=O)c(C(=O)O)cn1[C@H](C(C)C)C2 [RG7834]
γH2AX levels (γH2AX): γH2AX levels were reduced | activity in cell culture against the HPV B infection [1]: highly active | changes in gene expression (DKC1_A353V hESCs [2]): did not lead to significant changes in gene expression | toxicity in RG7834-treated cells (HeLa cells): No cellular toxicity was observed | TERC levels (TERC; 4 days of treatment): significant increase in TERC levels | TERC levels (TERC; continuous treatment up to 30 days, different concentrations): sustained up to 30 days | TERC levels in the stem cell model of DC (TERC; stem cells carrying disease-causing DKC1 mutations): partially rescued TERC levels | reduction in the 3′-end oligoadenylation of TERC (PAPD5): > 15 fold | toxicity associated with RG7834 treatment (DKC1_A353V hESCs [3]): no toxicity associated with RG7834 treatment was detected
